Where two headings read alike, the source gives them in different places.
Assays:
HRV3C = HRV3C (Human rhinovirus 14, UniProt P03303); test: HRV3C protease assay (duplex, SAMDI-MS); assay type: biochemical, HRV; conditions: HRV3C, 30 mins preincubation, read-out: HRV IC50
Method in brief: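 Compounds are preincubated 30 min with the protease pair before substrate addition, and cleavage proceeds 30 min at room temperature. Product peptides are measured by SAMDI-MS relative to internal standards, with IC50 obtained from a four-parameter fit.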

[1] = tested on: human beta-coronavirus OC43; test: microbe, parasite or virus in culture; assay type: cell-based; conditions: Betacoronavirus 1, OC43, HeLa, 144 h, OC43 in HeLa cells, 6 days at 33° C., class symbols; read-out: EC50
[2] = Cytotoxicity plates without OC43 virus (cell-titer-glo); assay type: cell-based, human; conditions: human; HeLa cells without OC43 virus, class symbols
Method in brief: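 Run as a virus-free counterpart of the OC43 cytopathic-effect assay. Attached HeLa cells received compound dilutions in EMEM with 2% FBS and were kept 6 days at 33 °C. Cell viability was then measured by CellTiter-Glo luminescence.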

[3] = tested on: SARS-CoV-2-GHB-03021/2020; test: SARS-CoV-2 Infection Model in Huh7 Cells; assay type: cell-based; conditions: Severe acute respiratory syndrome coronavirus 2, Huh-7, 96 h, SARS-CoV-2, day 4 p.i., MTS, class symbols
[4] = tested on: SARS-CoV-2-GHB-03021/2020; test: microbe, parasite or virus in culture; assay type: cell-based; conditions: Severe acute respiratory syndrome coronavirus 2, Vero C1008, 96 h; read-out: VeroE6 + CP (EC50)
human cathepsin L = molecular target: T1, human cathepsin L (Homo sapiens, UniProt P07711); test: cathepsin L assay; assay type: biochemical; conditions: 10 pM human cathepsin L, Z-FR-AMC 2 μM, class symbols
T1 construct: purchased R&D Systems
T1 sequence (P07711 114-333): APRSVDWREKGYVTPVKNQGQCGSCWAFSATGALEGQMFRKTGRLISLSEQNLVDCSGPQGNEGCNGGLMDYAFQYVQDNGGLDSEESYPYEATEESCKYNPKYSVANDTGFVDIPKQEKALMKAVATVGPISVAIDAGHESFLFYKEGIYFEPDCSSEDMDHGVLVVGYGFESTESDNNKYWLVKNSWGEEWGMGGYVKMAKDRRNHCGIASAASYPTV
Method in brief: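 Reactions began by adding 2 μM (final) Z-FR-AMC substrate to 10 pM human cathepsin L that had been preincubated 30 min with inhibitor. Kinetic AMC fluorescence at 355/460 nm over 30 min at 2-min intervals; four-parameter fitting gave IC50 values.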

in vitro [5] = conditions: human
in vitro [6] = conditions: African green monkey, VeroE6 + CP (CC50), Vero E6-eGFP cells with CP-100356, absence of virus, MTS
3CLpro = 3CLpro (Severe acute respiratory syndrome coronavirus 2, UniProt P0DTD1); test: SARS-CoV-2 3CLpro protease assay (duplex, SAMDI-MS); assay type: biochemical; set-up: For the duplex assay, 3CLpro and HRV3C was added; conditions: 3CLpro, 30 mins preincubation, class symbols; read-out: SARS-Cov-2 IC50

Chain of HRV3C (P03303 1538-1719): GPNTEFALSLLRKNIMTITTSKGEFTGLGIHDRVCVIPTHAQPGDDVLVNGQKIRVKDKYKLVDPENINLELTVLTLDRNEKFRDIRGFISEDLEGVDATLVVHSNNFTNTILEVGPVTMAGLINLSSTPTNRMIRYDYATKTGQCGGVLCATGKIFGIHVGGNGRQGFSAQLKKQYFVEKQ

CC(C)C(=O)OCC(=O)[C@H](C[C@@H]1CCNC1=O)NC(=O)[C@@H]1[C@H]2CCC[C@H]2CN1C(=O)c1cc2c(Cl)cc(Cl)cc2[nH]1 [Compound 125, (3S)-3-{[(1S,3aR,6aS)-2-(4,6-dichloro-1H-indole-2-carbonyl)-hexahydro-1H-cyclopenta[c]pyrrol-1-yl]formamido}-2-oxo-4-[(3S)-2-oxopyrrolidin-3-yl]butyl 2-methylpropanoate]
IC50 (HRV3C; bound): > 10 µM | EC50 [1]: < 0.1 µM | CC50 at 6 days [2]: > 10 µM | EC50 [3]: < 1 µM | EC50 [4]: < 1 µM | IC50 (human cathepsin L): ≥ 10 µM | CC50 (in vitro [5]): > 10 µM | CC50 (in vitro [6]; numeric bounds): > 50 µM | IC50 (3CLpro): 0.2 to 2 µM

O=C1NCC[C@H]1C[C@H](NC(=O)[C@@H]1[C@H]2CCC[C@H]2CN1C(=O)c1cc2c(OC(F)F)cc(Cl)cc2[nH]1)C(=O)CO [Compound 126, (1S,3aR,6aS)-2-[6-chloro-4-(difluoromethoxy)-1H-indole-2-carbonyl]-N-[(2S)-4-hydroxy-3-oxo-1-[(3S)-2-oxopyrrolidin-3-yl]butan-2-yl]-hexahydro-1H-cyclopenta[c]pyrrole-1-carboxamide]
IC50 (HRV3C; class symbols): 2 to 20 µM | EC50 [1]: < 0.1 µM | CC50 at 6 days [2]: > 10 µM | EC50 [3]: 1 to 10 µM | EC50 [4]: 1 to 10 µM | IC50 (human cathepsin L): ≥ 10 µM | CC50 (in vitro [5]): > 50 µM | CC50 (in vitro [6]; numeric bounds): > 50 µM | IC50 (3CLpro): < 0.02 µM

CC1(C)[C@@H]2[C@@H](C(=O)N[C@@H](C[C@@H]3CCNC3=O)C(=O)CO)N(C(=O)c3cc4c(Cl)cc(Cl)cc4[nH]3)C[C@@H]21 [Compound 127, (1R,2S,5S)-3-(4,6-dichloro-1H-indole-2-carbonyl)-N-[(2S)-4-hydroxy-3-oxo-1-[(3S)-2-oxopyrrolidin-3-yl]butan-2-yl]-6,6-dimethyl-3-azabicyclo[3.1.0]hexane-2-carboxamide]
IC50 (HRV3C; class symbols): 2 to 20 µM | EC50 [1]: 0.1 to 1 µM | CC50 at 6 days [2]: > 10 µM | EC50 [3]: < 1 µM | EC50 [4]: < 1 µM | IC50 (human cathepsin L): ≥ 10 µM | CC50 (in vitro [5]): > 10 µM | CC50 (in vitro [6]; numeric bounds): > 50 µM | IC50 (3CLpro): 0.02 to 0.2 µM

O=C1NCC[C@H]1C[C@H](NC(=O)[C@@H]1[C@H]2CCC[C@H]2CN1C(=O)c1cc2c(Cl)ccc(OCc3ccccc3)c2[nH]1)C(=O)CO [Compound 128, (1S,3aR,6aS)-2-[7-(benzyloxy)-4-chloro-1H-indole-2-carbonyl]-N-[(2S)-4-hydroxy-3-oxo-1-[(3S)-2-oxopyrrolidin-3-yl]butan-2-yl]-hexahydro-1H-cyclopenta[c]pyrrole-1-carboxamide]
IC50 (HRV3C; bound): > 10 µM | EC50 [1]: < 0.1 µM | CC50 at 6 days [2]: > 10 µM | EC50 [3]: < 1 µM | EC50 [4]: 1 to 10 µM | IC50 (human cathepsin L): ≥ 10 µM | CC50 (in vitro [5]): > 10 µM | CC50 (in vitro [6]; class symbols): > 10 µM | IC50 (3CLpro): 0.02 to 0.2 µM

O=C1NCC[C@H]1C[C@H](NC(=O)[C@@H]1[C@H]2CCC[C@H]2CN1C(=O)c1cc2c(Cl)cc(Oc3ccccc3)cc2[nH]1)C(=O)CO [Compound 129, (1S,3aR,6aS)-2-(4-chloro-6-phenoxy-1H-indole-2-carbonyl)-N-[(2S)-4-hydroxy-3-oxo-1-[(3S)-2-oxopyrrolidin-3-yl]butan-2-yl]-hexahydro-1H-cyclopenta[c]pyrrole-1-carboxamide]
IC50 (HRV3C; bound): > 10 µM | EC50 [1]: < 0.1 µM | CC50 at 6 days [2]: > 10 µM | EC50 [3]: < 1 µM | EC50 [4]: < 1 µM | IC50 (human cathepsin L): ≥ 10 µM | CC50 (in vitro [5]): > 10 µM | CC50 (in vitro [6]; class symbols): > 10 µM | IC50 (3CLpro): < 0.02 µM

O=C1NCC[C@H]1C[C@H](NC(=O)[C@@H]1[C@H]2CCC[C@H]2CN1C(=O)c1cc2c(Cl)cc(OCc3ccccc3)cc2[nH]1)C(=O)CO [Compound 130, (1S,3aR,6aS)-2-(6-(benzyloxy)-4-chloro-1H-indole-2-carbonyl)-N—((S)-4-hydroxy-3-oxo-1-((S)-2-oxopyrrolidin-3-yl)butan-2-yl)octahydrocyclopenta[c]pyrrole-1-carboxamide]
IC50 (HRV3C; bound): > 10 µM | EC50 [1]: < 0.1 µM | CC50 at 6 days [2]: > 10 µM | EC50 [3]: < 1 µM | EC50 [4]: < 1 µM | IC50 (human cathepsin L): ≥ 10 µM | CC50 (in vitro [5]): > 10 µM | CC50 (in vitro [6]; class symbols): > 10 µM | IC50 (3CLpro): 0.02 to 0.2 µM
